Here are results for two molecules from US20050054629A1, “Compounds and methods of treating cell proliferative diseases” (priority 2002, published 2005).

Common to all, as to type: cell-based, human
One data set deals with HCT116. Kind of data set: Cell viability assay (MTT), Example 32. The following applies: Homo sapiens, HCT-116, 144 h; day 6, 10% FBS. Here is the method:
FIG. 7: Antiproliferative effect of compounds on HCT116 (top) and MDA-MB-231 (bottom) cell lines measured by MTT viability assay. 2.5 10^3 (HCT116) or 7.5 10^3 (MDA-MB-231) cells were seeded in 48-well plates in growth medium containing 10% FBS, with or without various concentrations of test compounds. Cell cultures were fed every 3 days with the appropriate media. Cell viability was determined on day 6. Data were analyzed and IC50s were calculated from the dose-response curves using GraphPad Prism.
In order to determine one compound effect on cell viability, microculture tetrazolium assay (MTT) was performed as described by Carmichael et al., (1996) with modifications. Four human tumoral cell lines, namely HCT116 colon adenocarcinoma, H460 lung carcinoma, MCF-7 and MDA-MB-231 breast carcinoma cell lines, and 3 immortalized but non tumorigenic cell lines, namely NIH3T3 mouse fibroblasts and human breast-derived MCF10-A and human lung-derived MRC-5 were purchased at ATCC and cultured according to their recommendations. Briefly, 2.5 10^3 to 2 10^4 cells per well were seeded in 48-well plates 24 hours before drug addition. Cells were treated with 0 to 200 μM (11 concentrations) of compound solubilized in DMSO, adjusting the final concentration of DMSO to 1% in the well. Six days after treatment, the medium was replaced by PBS containing 0.5 mg/ml MTT (Sigma) and cells were incubated for 1-3 hours at 37° C. before solubilization of formazan crystals in 100% DMSO. Absorbance was measured using a spectrophotometer at a wavelength of 550 nm. Data was analyzed using the GraphPad Prism software (GraphPad Software, Inc., San Diego, USA), and IC50 (dose leading to 50% cell death) was calculated from the dose-response curves.

In another data set the test system is HCT116 cells. The experiment in a line: Anchorage-independent cell growth assay in soft agar, Example 32. As to the method: FIG. 8: Effect of the treatment of HCT116 cells with the compounds on the size of the clones grown in soft agar. 5 10^3 cells were seeded in 24-well plates in 0.3% agar-containing medium supplemented with the designated amount of compounds. After 7 days of incubation at 37° C., pictures were taken of each well and were analyzed using the ImageJ image analysis software. In particular, clone size and number were calculated. The data were analyzed using GraphPad Prism, and IC50 was calculated.
In order to evaluate the effect of one compound on the capacity of tumour cells to grow without anchorage, HCT116 cells were seeded in soft agar. In contrast to microplate assays which average the drug's effects over an entire cell population, clonogenic assays offer the possibility of distinguishing cytotoxic agents (i.e., decreased colony number) from cytostatic agents (i.e., decreased colony size without decreased colony number; Murphy M. J. et al., 1996).
Briefly, 5 10^3 HCT116 cells were resuspended in 300 pi of complete medium containing 0.3% soft-agar (Difco) and different concentrations of compound (8 concentrations ranging from 0 to 30 μM). Cells were then poured on a solidified layer of medium containing 0.5% of soft agar plus the compound at the same concentration as in the upper layer. Cells were incubated for 7 days' at 37° C. before pictures of each well were taken using a phase contrast microscope (Nikon) and a digital camera (Nikon Coolpix 990). Pictures were subsequently analyzed using a free image analysis software from the NIH (ImageJ) allowing to determine clones size and number.
Data was analyzed using the GraphPad Prism software, and IC50 (dose leading to a 50% decrease of clone size or number) was calculated from dose-response curves. The ratio IC50 clone size/IC50 clone number was then calculated. When this ratio is equal to 1 (IC50 size=IC50 number), the compound is referred to as “cytotoxic”. When the ratio is close to 0 (IC50 size<<IC50 number), the compound is referred to as “cytostatic” (FIG. 6).

Another data set has as its system MDA-MB-231 cells. The experiment in a line: Migration assay (Fluoroblock inserts), Example 32. The settings on record: 16 hours. As to the method:
FIG. 10: Migration of MDA-MB-231 cells in the presence of various concentrations of L651582, and EHT 0823. 5 10^4 MDA-MB-231 cells, resuspended in culture medium with or without Fetal Bovine Serum (FBS), were seeded in the upper Boyden blind well on top of 8 μm pore-sized filters. The ability of cells to migrate through the filter was assayed in the absence or presence of FBS in the lower Boyden well. After incubation at 37° C. for 16 hours, the medium was removed and replaced with calcein containing medium. After labelling, cells were washed and resuspended in HBSS and fluorescence was read in a fluoroskan. Fluorescence values were normalized against the fluorescence obtained for the 1% DMSO control. The data plotted are the means±SEM for 2 wells under the different conditions.
An essential characteristic of malignant cells is their ability to migrate, invade host tissues and to produce metastases. In order to evaluate the capacity of one compound to affect the ability of tumoral cells to migrate, migration assays were performed using highly invasive tumoral cells MDA-MB-231. This assay was performed using Falcon HTS Fluoroblock inserts. Culture medium containing Fetal Bovine Serum (FBS; which is used as a chemoattractant) was added to the plate wells and 2 10^4 MDA-MB-231 cells resuspended in medium without FBS and with 0.1% BSA were added to each insert well. The compound of interest was added to the medium in both the upper and the lower chambers. Plate were incubated for 16 hours at 37° C. Following incubation, the medium was removed from the upper chamber and the entire insert plate was transferred to a second 24-well plate containing 4 μg/ml Calcein-AM in medium containing 0.1% BSA. The plates were incubated for one hour at 37° C., rinsed with Hanks Buffered Saline (HBSS). Fluorescence data were collected using Fluoroskan Ascent FL fluorescence plate reader at an excitation wavelength (Ex) of 485 nm and emission wavelength (Em) of 517 nm. Only those labelled cells that passed through the Matrigel layer and the membrane were detected. Data were analyzed using the GraphPad Prism software.

Take `O=c1cc(COC2CCCCO2)occ1OCCCCCn1ccc2cc(Cl)ccc21` (centres unmarked) [EHT 0823, 5-[5-(5-Chloro-indol-1-yl)-pentyloxy]-2-(tetrahydro-pyran-2-yloxymethyl)-4H-pyran-4-one]: in the data set with HCT116, the IC50 (usually the concentration at which inhibition is half-maximal) is 1.5 to 4 µM. Besides, the “IC50 anchorage-independent growth of HCT116 (clone size) in soft agar” value in the data set on HCT116 cells (7 days) is “micromolar range”. For the same molecule, the “inhibition of migration of MDA-MB-231 cells” value in the data set on MDA-MB-231 cells (10 μM compound) is “No significant inhibition”. In addition, 50 µM produced 90% inhibition in the data set with MDA-MB-231 cells (Homo sapiens, MDA-MB-231, 50 μM compound).

For `NC(=O)c1nnn(Cc2cc(Cl)c(C(=O)c3ccc(Cl)cc3)c(Cl)c2)c1N` [L651582, carboxyamidotriazole, reference compound], in the data set with HCT116 cells (HCT116 soft agar), the “mode of action (cytotoxic vs cytostatic)” value is recorded as “cytostatic”. In the data set on HCT116 cells (HCT116 soft agar, 7 days), the “ratio IC50 clone size/IC50 clone number” value stood at 0.3. Moreover, the “inhibition of migration of MDA-MB-231 cells” value in the data set with MDA-MB-231 cells (50 μM compound) is listed as “Complete inhibition”. In addition, in the data set with MDA-MB-231 cells (Homo sapiens, MDA-MB-231, 10 μM compound), the inhibition (usually how much of the control response was suppressed) at 10 µM was about 40%.
